Results reported in PubChem BioAssay AID1963848 (Molecular Pharmacology Branch, DTP, NCI, 2024).
pIC50: −log10 of the molar value.

Tested on: 379773-124-R-J2-PDC spheroid viability
Experiment: Anticancer human tumor 379773-124-R-J2-PDC patient-derived endometrial carcinoma cell line growth inhibition [POLQ]
Details: spheroids with HUVEC and MSC; for pIC50: curve of first compound; for viability, T/C: stronger effect = lower value
How it was run: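 Patient-derived tumour cells were co-cultured with HUVEC and mesenchymal stem cells as multicellular spheroids at 37 °C. They were treated with POLQ inhibitors (novobiocin, ART-558, RP6685) alone or combined with other agents. Top concentrations were at or near clinical Cmax (otherwise 10 microM; SN-38 at 1 microM), decreasing in half-log steps.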

[1] = second compound 0.0316 µM, first compound 0.0316 µM
[2] = second compound 0.0316 µM, first compound 0.1 µM
[3] = second compound 0.0316 µM, first compound 0.316 µM
[4] = second compound 0.0316 µM, first compound 1 µM
[5] = second compound 0.0316 µM, first compound 3.16 µM
[6] = second compound 0.0316 µM, first compound 10 µM
[7] = second compound 0.1 µM, first compound 0.0316 µM
[8] = second compound 0.1 µM, first compound 0.1 µM
[9] = second compound 0.1 µM, first compound 0.316 µM
[10] = second compound 0.1 µM, first compound 1 µM
[11] = second compound 0.1 µM, first compound 3.16 µM
[12] = second compound 0.1 µM, first compound 10 µM
[13] = second compound 0.316 µM, first compound 0.0316 µM
[14] = second compound 0.316 µM, first compound 0.1 µM
[15] = second compound 0.316 µM, first compound 0.316 µM
[16] = second compound 0.316 µM, first compound 1 µM
[17] = second compound 0.316 µM, first compound 3.16 µM
[18] = second compound 0.316 µM, first compound 10 µM
[19] = second compound 1 µM, first compound 0.0316 µM
[20] = second compound 1 µM, first compound 0.1 µM
[21] = second compound 1 µM, first compound 0.316 µM
[22] = second compound 1 µM, first compound 1 µM
[23] = second compound 1 µM, first compound 3.16 µM
[24] = second compound 1 µM, first compound 10 µM
[25] = second compound 3.16 µM, first compound 0.0316 µM
[26] = second compound 3.16 µM, first compound 0.1 µM
[27] = second compound 3.16 µM, first compound 0.316 µM
[28] = second compound 3.16 µM, first compound 1 µM
[29] = second compound 3.16 µM, first compound 3.16 µM
[30] = second compound 3.16 µM, first compound 10 µM
[31] = second compound 10 µM, first compound 0.0316 µM
[32] = second compound 10 µM, first compound 0.1 µM
[33] = second compound 10 µM, first compound 0.316 µM
[34] = second compound 10 µM, first compound 1 µM
[35] = second compound 10 µM, first compound 3.16 µM
[36] = second compound 10 µM, first compound 10 µM
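Note: spheroids exposed to drugs for seven days before readout.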
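Throughout, for viability, T/C: percent viability relative to DMSO vehicle control taken as 100%.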

For `CC1COCCN1c1cc(C2(O)CC3CCC(C2)O3)c2cnn(-c3ccn[nH]3)c2n1` (centres undefined) + Nc1ccc(C#CCN(C(=O)Cc2ncc(C(F)(F)F)cc2C(F)(F)F)c2ccc(F)cc2)nn1, the pIC50 (second compound 0.0316 µM) was 6.89, the pIC50 (second compound 0.1 µM) was 6.98 and the pIC50 (second compound 0.316 µM) was 6.92. For the same compound, the pIC50 (second compound 1 µM) was 6.97, the pIC50 (second compound 3.16 µM) was 6.90 and the pIC50 (second compound 10 µM) was 6.94. It also gave a viability, T/C [1] of 110%, a viability, T/C [2] of 59.9% and a viability, T/C [3] of 13.5%. For the same compound, the viability, T/C [4] was 12.8%, the viability, T/C [5] was 11.2% and the viability, T/C [6] was 4.19%. The viability, T/C [7] was 92%, the viability, T/C [8] was 51.4% and the viability, T/C [9] was 16%. For the same compound, the viability, T/C [10] was 14%, the viability, T/C [11] was 10.2% and the viability, T/C [12] was 3.29%. The viability, T/C [13] was 83.2%, the viability, T/C [14] was 56.6% and the viability, T/C [15] was 16.1%. For the same compound, the viability, T/C [16] was 11.8%, the viability, T/C [17] was 10.4% and the viability, T/C [18] was 4.27%. For the same compound, the viability, T/C [19] was 86.9%, the viability, T/C [20] was 52.5% and the viability, T/C [21] was 16.4%. It also gave a viability, T/C [22] of 13.6%, a viability, T/C [23] of 8.92% and a viability, T/C [24] of 3.67%. It also gave a viability, T/C [25] of 83%, a viability, T/C [26] of 59.3% and a viability, T/C [27] of 12.5%. The viability, T/C [28] was 11.8%, the viability, T/C [29] was 9.65% and the viability, T/C [30] was 3.56%. The viability, T/C [31] was 82.8%, the viability, T/C [32] was 54.5% and the viability, T/C [33] was 18.5%. It also gave a viability, T/C [34] of 14.6%, a viability, T/C [35] of 9.99% and a viability, T/C [36] of 3.04%.
In the case of `O=C(Nc1ccc(O)c(NS(=O)(=O)c2ccc(F)cc2)c1)c1ccc(-c2ccccc2)cc1` + Nc1ccc(C#CCN(C(=O)Cc2ncc(C(F)(F)F)cc2C(F)(F)F)c2ccc(F)cc2)nn1, the pIC50 (second compound 0.0316 µM) was under 5.00, the pIC50 (second compound 0.1 µM) was under 5.00 and the pIC50 (second compound 0.316 µM) was under 5.00. The pIC50 (second compound 1 µM) was under 5.00, the pIC50 (second compound 3.16 µM) was under 5.00 and the pIC50 (second compound 10 µM) was under 5.00. For the same compound, the viability, T/C [1] was 85%, the viability, T/C [2] was 92.1% and the viability, T/C [3] was 85.8%. For the same compound, the viability, T/C [4] was 91.5%, the viability, T/C [5] was 89.8% and the viability, T/C [6] was 77.5%. For the same compound, the viability, T/C [7] was 89.8%, the viability, T/C [8] was 81.8% and the viability, T/C [9] was 90.8%. For the same compound, the viability, T/C [10] was 82.6%, the viability, T/C [11] was 89% and the viability, T/C [12] was 79.3%. For the same compound, the viability, T/C [13] was 91.9%, the viability, T/C [14] was 90.4% and the viability, T/C [15] was 84.1%. The viability, T/C [16] was 88.7%, the viability, T/C [17] was 92.2% and the viability, T/C [18] was 79.6%. For the same compound, the viability, T/C [19] was 96.6%, the viability, T/C [20] was 96.4% and the viability, T/C [21] was 89.1%. The viability, T/C [22] was 83.2%, the viability, T/C [23] was 93.8% and the viability, T/C [24] was 81%. It also gave a viability, T/C [25] of 94.4%, a viability, T/C [26] of 86.3% and a viability, T/C [27] of 88.8%. It also gave a viability, T/C [28] of 86.2%, a viability, T/C [29] of 86.7% and a viability, T/C [30] of 79.4%. It also gave a viability, T/C [31] of 94.2%, a viability, T/C [32] of 87.6% and a viability, T/C [33] of 87%. It also gave a viability, T/C [34] of 85.2%, a viability, T/C [35] of 86.5% and a viability, T/C [36] of 71.9%.
